Data taken from ChEMBL document CHEMBL3286233, “Design and synthesis of systemically active metabotropic glutamate subtype-2 and -3 (mGlu2/3) receptor positive allosteric modulators (PAMs): pharmacological characterization and assessment in a rat model of cocaine dependence” (J Med Chem, 2014).

Experiments:
[1] = test system: Rattus norvegicus; assay: Volume of distribution at steady state in rat at 2 mg/kg, iv; assay type: ADME, organism-based; parameters: dose 2 mg/kg, route intravenous; details: in vivo
[2] = test system: Rattus norvegicus; assay: AUC (0 to t) in rat at 2 mg/kg, iv; assay type: ADME, organism-based, Plasma; parameters: dose 2 mg/kg, route intravenous; details: in vivo
[3] = test system: Rattus norvegicus; assay: Cmax in rat at 20 mg/kg, po; assay type: ADME, organism-based; parameters: dose 20 mg/kg, route oral; details: in vivo
[4] = test system: Plasma; assay: Plasma concentration in rat at 20 mg/kg, po; assay type: ADME, organism-based; parameters: dose 20 mg/kg, route oral; details: in vivo
[5] = test system: Rattus norvegicus; assay: Tmax in rat at 20 mg/kg, po; assay type: ADME, organism-based; parameters: dose 20 mg/kg, route oral; details: in vivo
[6] = test system: Rattus norvegicus; assay: AUC (0 to t) in rat at 20 mg/kg, po; assay type: ADME, organism-based, Plasma; parameters: dose 20 mg/kg, route oral; details: in vivo
[7] = test system: Brain; assay: Drug uptake in rat brain at 20 mg/kg, po; assay type: ADME, organism-based; parameters: dose 20 mg/kg, route oral; details: in vivo, read-out: Drug uptake
[8] = test system: Rattus norvegicus; assay: Cmax in rat at 2 mg/kg, iv; assay type: ADME, organism-based; parameters: dose 2 mg/kg, route intravenous; details: in vivo
[9] = Tmax in rat at 10 mg/kg, ip; assay type: ADME, organism-based; parameters: dose 10 mg/kg, route intraperitoneal; details: in vivo
[10] = test system: Nucleic Acid; assay: Ratio of drug uptake from brain to plasma in rat after 30 mins; assay type: ADME; details: 0.5 h

Cc1c(OCCCCOc2ccc(C(=O)O)cc2)ccc(C(=O)CC(C)C)c1O
Vdss [1]: 0.81 L/kg
AUCt [2]: 231.7 µmol·min/L
Cmax [3]: 2.57 µM
concentration [4]: 5.29 µM
Tmax [5]: 135 min
AUCt [6]: 544.8 µmol·min/L
concentration [7]: 1.12 µM
Cmax [8]: 5 µM

COc1cc(C(=O)O)ccc1OCCCCOc1ccc(C(=O)CC(C)C)c(O)c1C
Vdss [1]: 0.55 L/kg
AUCt [2]: 304.6 µmol·min/L
Cmax [3]: 2.75 µM
concentration [4]: 16.4 µM
Tmax [5]: 90 min
AUCt [6]: 1274.6 µmol·min/L
Tmax [9]: 30 min
concentration [7]: 0.81 µM
Cmax [8]: 6.43 µM

Cc1c(OCCCCOc2ccc(C(=O)CC(C)(C)C)c(O)c2C)cccc1C(=O)O
Tmax [9]: 30 min

COc1cc(C(=O)O)ccc1OCCCCOc1ccc(C(=O)CC(C)(C)C)c(O)c1C
Tmax [9]: 30 min
BPR [10]: 0.02

Cc1c(OCCCCOc2ccc(F)c(C(=O)O)c2)ccc(C(=O)CC(C)(C)C)c1O
Tmax [9]: 30 min

COc1ccc(C(=O)O)cc1OCCCCOc1ccc(C(=O)CC(C)(C)C)c(O)c1C
Tmax [9]: 30 min

Cc1c(OCCCCOc2ccc(F)c(C(=O)O)c2)ccc(C(=O)CC(C)C)c1O
Vdss [1]: 0.89 L/kg
AUCt [2]: 123.7 µmol·min/L
Cmax [3]: 12.5 µM
concentration [4]: 4.23 µM
Tmax [5]: 30 min
AUCt [6]: 720.5 µmol·min/L
concentration [7]: 0.23 µM
Cmax [8]: 3.52 µM

CCCC(=O)c1ccc(OCCCCOc2cc(C(=O)O)ccc2OC)c(C)c1O
Tmax [9]: 30 min

COc1ccc(C(=O)O)cc1OCCCCOc1ccc(C(=O)CC(C)C)c(O)c1C
Vdss [1]: 2.87 L/kg
AUCt [2]: 77.2 µmol·min/L
Cmax [3]: 1.05 µM
Tmax [5]: 96 min
AUCt [6]: 466.2 µmol·min/L
Cmax [8]: 2.15 µM

CCC(=O)c1ccc(OCCCCOc2ccc(F)c(C(=O)O)c2)c(C)c1O
Tmax [9]: 30 min
